Columns and labels:
Assay in all cases: Antimicrobial action test (MIC)
Assay type in all cases: cell-based
[1] = test system: Porphyromonas gingivalis
Text: (§1) Examples (Table 1): (MIC—minimum inhibitory concentration)

[2] = test system: Selenomonas artemidis
Text: as §1
(§2) Examples: (MIC=minimum inhibitory concentration)

[3] = test system: Trichophyton schoenleinii
Text: as §1, §2

[4] = test system: Staphylococcus mutans
Text: as §1, §2

[5] = test system: Staphylococcus sobrinus
Text: as §1, §2

[6] = test system: Malassezia furfur
Text: as §1, §2

[7] = test system: Microsporum canis
Text: as §1, §2

[8] = test system: Staphylococcus aureus
Text: as §1, §2

[9] = test system: Microsporum gypseum
Text: as §1, §2

[10] = test system: Epidermophyton floccosum
Text: as §1, §2

[11] = test system: Trichophyton mentagrophytes
Text: as §1, §2

[12] = test system: Trichophyton rubrum
Text: as §1, §2

Measured: MIC (minimum inhibitory concentration)

cyclodextrin [pure cyclodextrin]
>10000 ppm: [1] | [2] | [3] | [4] | [5] | [6] | [7] | [8] | [9] | [10] | [11] | [12]

Reference: US20060210658A1, “Processes for obtaining (-)-guaiol and the use thereof” (priority 2000, published 2006)
